The compounds below were run on MCF-10A (assay: normalised response (% of control), CellTiter-Glo; higher = more viable cells (100 = DMSO, 0 = benzethonium chloride kill control)). Settings: incubation time: 72 h.
Experimental: (§1)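 DSRT, 72 h incubation, CellTox Green / CellTiter-Glo readout. Signal is normalised to DMSO and benzethonium chloride controls. Value is the normalised response at dose 3.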

| SMILES | normalised response [%] |
| --- | --- |
| S=P(N1CC1)(N1CC1)N1CC1 [Thio-TEPA] (500 nM) | 106 |
| CN(C)CCOc1ccc(/C(=C(/CCCl)c2ccccc2)c2ccccc2)cc1 [Toremifene] (100 nM) | 103 |

The compounds below were run on MFM-223 in the same assay as above. Settings: incubation time: 72 h.
Experimental: as §1

| SMILES | normalised response [%] |
| --- | --- |
| N#Cc1ccc(COC[C@H]2O[C@@H](n3c(NCc4ccc(Cl)c(Cl)c4)nc4c(N)ncnc43)[C@H](O)[C@@H]2O)cc1 (100 nM) | 110 |
| COc1cc(O)c2c(c1)/C=C/C[C@H](O)[C@H](O)C(=O)/C=C\C[C@H](C)OC2=O [(5Z)-7-Oxozeaenol] (100 nM) | 103 |
| COc1cc(OC2CCN(C)CC2)ccc1Nc1ncc2c(n1)n(C1CCCC1)c(=O)n2C [AZ 3146] (100 nM) | 99.2 |
| CNC(=O)c1cccc(-c2ccc3c(N4CCOC[C@@H]4C)nc(N4CCOC[C@@H]4C)nc3n2)c1 [AZD2014] (100 nM) | 75.1 |
| O=C(/C=C/c1cccc(S(=O)(=O)Nc2ccccc2)c1)NO [Belinostat] (100 nM) | 85.6 |
| Cc1ccc(NC(=O)c2ccc(CN3CCN(C)CC3)cc2)cc1Nc1nc(-c2cccnc2)cs1 [Masitinib] (100 nM) | 106 |
| COC(=O)c1ccc2c(c1)NC(=O)/C2=C(\Nc1ccc(N(C)C(=O)CN2CCN(C)CC2)cc1)c1ccccc1 [Nintedanib] (100 nM) | 95.8 |
| S=P(N1CC1)(N1CC1)N1CC1 [Thio-TEPA] (500 nM) | 98.7 |
| CN(C)CCOc1ccc(/C(=C(/CCCl)c2ccccc2)c2ccccc2)cc1 [Toremifene] (100 nM) | 103 |

Each compound was assayed on MDA-MB-436 in the same assay as above. Settings: incubation time: 72 h.
Experimental: as §1

| SMILES | normalised response [%] |
| --- | --- |
| N#Cc1ccc(COC[C@H]2O[C@@H](n3c(NCc4ccc(Cl)c(Cl)c4)nc4c(N)ncnc43)[C@H](O)[C@@H]2O)cc1 (100 nM) | 110 |
| COc1cc(O)c2c(c1)/C=C/C[C@H](O)[C@H](O)C(=O)/C=C\C[C@H](C)OC2=O [(5Z)-7-Oxozeaenol] (100 nM) | 104 |
| COc1cc(OC2CCN(C)CC2)ccc1Nc1ncc2c(n1)n(C1CCCC1)c(=O)n2C [AZ 3146] (100 nM) | 104 |
| CNC(=O)c1cccc(-c2ccc3c(N4CCOC[C@@H]4C)nc(N4CCOC[C@@H]4C)nc3n2)c1 [AZD2014] (100 nM) | 82 |
| O=C(/C=C/c1cccc(S(=O)(=O)Nc2ccccc2)c1)NO [Belinostat] (100 nM) | 83.6 |
| Cc1ccc(NC(=O)c2ccc(CN3CCN(C)CC3)cc2)cc1Nc1nc(-c2cccnc2)cs1 [Masitinib] (100 nM) | 107 |
| COC(=O)c1ccc2c(c1)NC(=O)/C2=C(\Nc1ccc(N(C)C(=O)CN2CCN(C)CC2)cc1)c1ccccc1 [Nintedanib] (100 nM) | 102 |
| S=P(N1CC1)(N1CC1)N1CC1 [Thio-TEPA] (500 nM) | 94.8 |
| CN(C)CCOc1ccc(/C(=C(/CCCl)c2ccccc2)c2ccccc2)cc1 [Toremifene] (100 nM) | 100 |

What follows are compounds tested on CAL-120 in the same assay as above. Settings: incubation time: 72 h.
Experimental: as §1

| SMILES | normalised response [%] |
| --- | --- |
| N#Cc1ccc(COC[C@H]2O[C@@H](n3c(NCc4ccc(Cl)c(Cl)c4)nc4c(N)ncnc43)[C@H](O)[C@@H]2O)cc1 (100 nM) | 108 |
| COc1cc(O)c2c(c1)/C=C/C[C@H](O)[C@H](O)C(=O)/C=C\C[C@H](C)OC2=O [(5Z)-7-Oxozeaenol] (100 nM) | 101 |
| COc1cc(OC2CCN(C)CC2)ccc1Nc1ncc2c(n1)n(C1CCCC1)c(=O)n2C [AZ 3146] (100 nM) | 99.9 |
| CNC(=O)c1cccc(-c2ccc3c(N4CCOC[C@@H]4C)nc(N4CCOC[C@@H]4C)nc3n2)c1 [AZD2014] (100 nM) | 79.4 |
| O=C(/C=C/c1cccc(S(=O)(=O)Nc2ccccc2)c1)NO [Belinostat] (100 nM) | 87.5 |
| Cc1ccc(NC(=O)c2ccc(CN3CCN(C)CC3)cc2)cc1Nc1nc(-c2cccnc2)cs1 [Masitinib] (100 nM) | 97.7 |
| COC(=O)c1ccc2c(c1)NC(=O)/C2=C(\Nc1ccc(N(C)C(=O)CN2CCN(C)CC2)cc1)c1ccccc1 [Nintedanib] (100 nM) | 98.7 |
| S=P(N1CC1)(N1CC1)N1CC1 [Thio-TEPA] (500 nM) | 96.1 |
| CN(C)CCOc1ccc(/C(=C(/CCCl)c2ccccc2)c2ccccc2)cc1 [Toremifene] (100 nM) | 105 |

These compounds were tested on BT-549 in the same assay as above. Settings: incubation time: 72 h.
Experimental: as §1

| SMILES | normalised response [%] |
| --- | --- |
| N#Cc1ccc(COC[C@H]2O[C@@H](n3c(NCc4ccc(Cl)c(Cl)c4)nc4c(N)ncnc43)[C@H](O)[C@@H]2O)cc1 (100 nM) | 103 |
| COc1cc(O)c2c(c1)/C=C/C[C@H](O)[C@H](O)C(=O)/C=C\C[C@H](C)OC2=O [(5Z)-7-Oxozeaenol] (100 nM) | 76.2 |
| COc1cc(OC2CCN(C)CC2)ccc1Nc1ncc2c(n1)n(C1CCCC1)c(=O)n2C [AZ 3146] (100 nM) | 108 |
| CNC(=O)c1cccc(-c2ccc3c(N4CCOC[C@@H]4C)nc(N4CCOC[C@@H]4C)nc3n2)c1 [AZD2014] (100 nM) | 73.9 |
| O=C(/C=C/c1cccc(S(=O)(=O)Nc2ccccc2)c1)NO [Belinostat] (100 nM) | 99.3 |
| Cc1ccc(NC(=O)c2ccc(CN3CCN(C)CC3)cc2)cc1Nc1nc(-c2cccnc2)cs1 [Masitinib] (100 nM) | 107 |
| COC(=O)c1ccc2c(c1)NC(=O)/C2=C(\Nc1ccc(N(C)C(=O)CN2CCN(C)CC2)cc1)c1ccccc1 [Nintedanib] (100 nM) | 108 |
| S=P(N1CC1)(N1CC1)N1CC1 [Thio-TEPA] (500 nM) | 102 |
| CN(C)CCOc1ccc(/C(=C(/CCCl)c2ccccc2)c2ccccc2)cc1 [Toremifene] (100 nM) | 101 |

Each compound was assayed on CAL-51 in the same assay as above. Settings: incubation time: 72 h.
Experimental: as §1

| SMILES | normalised response [%] |
| --- | --- |
| N#Cc1ccc(COC[C@H]2O[C@@H](n3c(NCc4ccc(Cl)c(Cl)c4)nc4c(N)ncnc43)[C@H](O)[C@@H]2O)cc1 (100 nM) | 97.2 |
| COc1cc(O)c2c(c1)/C=C/C[C@H](O)[C@H](O)C(=O)/C=C\C[C@H](C)OC2=O [(5Z)-7-Oxozeaenol] (100 nM) | 103 |
| COc1cc(OC2CCN(C)CC2)ccc1Nc1ncc2c(n1)n(C1CCCC1)c(=O)n2C [AZ 3146] (100 nM) | 115 |
| CNC(=O)c1cccc(-c2ccc3c(N4CCOC[C@@H]4C)nc(N4CCOC[C@@H]4C)nc3n2)c1 [AZD2014] (100 nM) | 69.4 |
| O=C(/C=C/c1cccc(S(=O)(=O)Nc2ccccc2)c1)NO [Belinostat] (100 nM) | 63.4 |
| Cc1ccc(NC(=O)c2ccc(CN3CCN(C)CC3)cc2)cc1Nc1nc(-c2cccnc2)cs1 [Masitinib] (100 nM) | 83.5 |
| COC(=O)c1ccc2c(c1)NC(=O)/C2=C(\Nc1ccc(N(C)C(=O)CN2CCN(C)CC2)cc1)c1ccccc1 [Nintedanib] (100 nM) | 103 |
| S=P(N1CC1)(N1CC1)N1CC1 [Thio-TEPA] (500 nM) | 108 |
| CN(C)CCOc1ccc(/C(=C(/CCCl)c2ccccc2)c2ccccc2)cc1 [Toremifene] (100 nM) | 100 |

These compounds were tested on HCC1599 in the same assay as above. Settings: incubation time: 72 h.
Experimental: as §1

| SMILES | normalised response [%] |
| --- | --- |
| N#Cc1ccc(COC[C@H]2O[C@@H](n3c(NCc4ccc(Cl)c(Cl)c4)nc4c(N)ncnc43)[C@H](O)[C@@H]2O)cc1 (100 nM) | 98.3 |
| COc1cc(O)c2c(c1)/C=C/C[C@H](O)[C@H](O)C(=O)/C=C\C[C@H](C)OC2=O [(5Z)-7-Oxozeaenol] (100 nM) | 91.2 |
| COc1cc(OC2CCN(C)CC2)ccc1Nc1ncc2c(n1)n(C1CCCC1)c(=O)n2C [AZ 3146] (100 nM) | 98.3 |
| CNC(=O)c1cccc(-c2ccc3c(N4CCOC[C@@H]4C)nc(N4CCOC[C@@H]4C)nc3n2)c1 [AZD2014] (100 nM) | 119 |
| O=C(/C=C/c1cccc(S(=O)(=O)Nc2ccccc2)c1)NO [Belinostat] (100 nM) | 92.3 |
| Cc1ccc(NC(=O)c2ccc(CN3CCN(C)CC3)cc2)cc1Nc1nc(-c2cccnc2)cs1 [Masitinib] (100 nM) | 93.8 |
| COC(=O)c1ccc2c(c1)NC(=O)/C2=C(\Nc1ccc(N(C)C(=O)CN2CCN(C)CC2)cc1)c1ccccc1 [Nintedanib] (100 nM) | 114 |
| S=P(N1CC1)(N1CC1)N1CC1 [Thio-TEPA] (500 nM) | 89 |
| CN(C)CCOc1ccc(/C(=C(/CCCl)c2ccccc2)c2ccccc2)cc1 [Toremifene] (100 nM) | 102 |

What follows are compounds tested on BT-474 in the same assay as above. Settings: incubation time: 72 h.
Experimental: as §1

| SMILES | normalised response [%] |
| --- | --- |
| N#Cc1ccc(COC[C@H]2O[C@@H](n3c(NCc4ccc(Cl)c(Cl)c4)nc4c(N)ncnc43)[C@H](O)[C@@H]2O)cc1 (100 nM) | 98.6 |
| COc1cc(O)c2c(c1)/C=C/C[C@H](O)[C@H](O)C(=O)/C=C\C[C@H](C)OC2=O [(5Z)-7-Oxozeaenol] (100 nM) | 95.4 |
| COc1cc(OC2CCN(C)CC2)ccc1Nc1ncc2c(n1)n(C1CCCC1)c(=O)n2C [AZ 3146] (100 nM) | 104 |
| CNC(=O)c1cccc(-c2ccc3c(N4CCOC[C@@H]4C)nc(N4CCOC[C@@H]4C)nc3n2)c1 [AZD2014] (100 nM) | 87.1 |
| O=C(/C=C/c1cccc(S(=O)(=O)Nc2ccccc2)c1)NO [Belinostat] (100 nM) | 95 |
| Cc1ccc(NC(=O)c2ccc(CN3CCN(C)CC3)cc2)cc1Nc1nc(-c2cccnc2)cs1 [Masitinib] (100 nM) | 101 |
| COC(=O)c1ccc2c(c1)NC(=O)/C2=C(\Nc1ccc(N(C)C(=O)CN2CCN(C)CC2)cc1)c1ccccc1 [Nintedanib] (100 nM) | 96.8 |
| S=P(N1CC1)(N1CC1)N1CC1 [Thio-TEPA] (500 nM) | 95 |
| CN(C)CCOc1ccc(/C(=C(/CCCl)c2ccccc2)c2ccccc2)cc1 [Toremifene] (100 nM) | 102 |

These compounds were tested on MDA-MB-453 in the same assay as above. Settings: incubation time: 72 h.
Experimental: as §1

| SMILES | normalised response [%] |
| --- | --- |
| N#Cc1ccc(COC[C@H]2O[C@@H](n3c(NCc4ccc(Cl)c(Cl)c4)nc4c(N)ncnc43)[C@H](O)[C@@H]2O)cc1 (100 nM) | 95.7 |
| COc1cc(O)c2c(c1)/C=C/C[C@H](O)[C@H](O)C(=O)/C=C\C[C@H](C)OC2=O [(5Z)-7-Oxozeaenol] (100 nM) | 108 |
| COc1cc(OC2CCN(C)CC2)ccc1Nc1ncc2c(n1)n(C1CCCC1)c(=O)n2C [AZ 3146] (100 nM) | 111 |
| CNC(=O)c1cccc(-c2ccc3c(N4CCOC[C@@H]4C)nc(N4CCOC[C@@H]4C)nc3n2)c1 [AZD2014] (100 nM) | 80.8 |
| O=C(/C=C/c1cccc(S(=O)(=O)Nc2ccccc2)c1)NO [Belinostat] (100 nM) | 62.3 |
| Cc1ccc(NC(=O)c2ccc(CN3CCN(C)CC3)cc2)cc1Nc1nc(-c2cccnc2)cs1 [Masitinib] (100 nM) | 106 |
| COC(=O)c1ccc2c(c1)NC(=O)/C2=C(\Nc1ccc(N(C)C(=O)CN2CCN(C)CC2)cc1)c1ccccc1 [Nintedanib] (100 nM) | 109 |
| S=P(N1CC1)(N1CC1)N1CC1 [Thio-TEPA] (500 nM) | 116 |
| CN(C)CCOc1ccc(/C(=C(/CCCl)c2ccccc2)c2ccccc2)cc1 [Toremifene] (100 nM) | 107 |

These compounds were tested on DU-4475 in the same assay as above. Settings: incubation time: 72 h.
Experimental: as §1

| SMILES | normalised response [%] |
| --- | --- |
| N#Cc1ccc(COC[C@H]2O[C@@H](n3c(NCc4ccc(Cl)c(Cl)c4)nc4c(N)ncnc43)[C@H](O)[C@@H]2O)cc1 (100 nM) | 103 |
| COc1cc(O)c2c(c1)/C=C/C[C@H](O)[C@H](O)C(=O)/C=C\C[C@H](C)OC2=O [(5Z)-7-Oxozeaenol] (100 nM) | 76.1 |
| COc1cc(OC2CCN(C)CC2)ccc1Nc1ncc2c(n1)n(C1CCCC1)c(=O)n2C [AZ 3146] (100 nM) | 99.9 |
| CNC(=O)c1cccc(-c2ccc3c(N4CCOC[C@@H]4C)nc(N4CCOC[C@@H]4C)nc3n2)c1 [AZD2014] (100 nM) | 97.1 |
| O=C(/C=C/c1cccc(S(=O)(=O)Nc2ccccc2)c1)NO [Belinostat] (100 nM) | 86.4 |
| Cc1ccc(NC(=O)c2ccc(CN3CCN(C)CC3)cc2)cc1Nc1nc(-c2cccnc2)cs1 [Masitinib] (100 nM) | 105 |

From the supplement of paper PMC4862054
